The values below come from patent US20110213179A1, “METHOD OF EVALUATING EVENNESS OF SUPLATAST TOSILATE CRYSTAL, EVEN CRYSTAL, AND PROCESS FOR PRODUCING THE SAME” (TAIHO PHARMACEUTICAL CO., LTD., priority 2004, published 2011).

The nature of the series: Stability test: crystals stored at 60° C. for three months, amount of decomposition products. Format: physicochemical. How it is done: Suplatast tosilate crystals of the present invention produced in Examples 3 and 4 (Lots A and B) and first-form suplatast tosilate crystals produced through the method described in Japanese Patent Publication (kokoku) No. 1991-70698 (Lots C, D, and E) (1.0 g for each Lot) were stored at 60° C. for three months for stability measurement. For reference, second-form suplatast tosilate crystals produced through the method described in JP-A-1995-252213 (Lot F) and third-form suplatast tosilate crystals produced through the method described in WO 02/083633 (Lot G) were subjected to stability measurement in a manner similar to that described above.
As is clear from Table 1, all the first-form crystals produced through the conventionally known production method undergo decomposition, but the crystals produced through the production method of the present invention undergo virtually no decomposition and are stable.

SMILES strings stand for the structures.

As to `CCOCC(O)COc1ccc(NC(=O)CC[S+](C)C)cc1.Cc1ccc(S(=O)(=O)[O-])cc1` (racemic) [First-form crystals Lot E, (±)-[2-[4-(3-ethoxy-2-hydroxypropoxy)phenylcarbamoyl]ethyl]dimethylsulfonium p-toluenesulfonate], under “1 month”, the “Amount (%) of suplatast tosilate decomposition products produced at 60° C.: Decomposition product 2” value (from here on “Amount (%) … Decomposition product 2”) is 0.0% and the “Amount (%) of suplatast tosilate decomposition products produced at 60° C.: Decomposition product 3” value (shortened to “Amount (%) … Decomposition product 3”) was found to be 0.0%. In addition, where the note is “1 month, p-toluenesulfonate”, the “Amount (%) of suplatast tosilate decomposition products produced at 60° C.: Decomposition product 1” value (“Amount (%) … Decomposition product 1” below) came out at 0.0% and the “Amount (%) of suplatast tosilate decomposition products produced at 60° C.: Total amount of decomposition products” value (from here on “Amount (%) … of decomposition products”) is 0.0%. Where the note is “2 months, p-toluenesulfonate”, the “Amount (%) … Decomposition product 1” value amounted to 0.3%, the “Amount (%) … Decomposition product 2” value stood at 0.1%, the “Amount (%) … Decomposition product 3” value was determined as 0.1% and the “Amount (%) … of decomposition products” value is given as 0.5%. Moreover, under “3 months, p-toluenesulfonate”, the “Amount (%) … Decomposition product 1” value came to 0.9%, the “Amount (%) … Decomposition product 2” value came out at 0.2%, the “Amount (%) … Decomposition product 3” value was found to be 0.3% and the “Amount (%) … of decomposition products” value is recorded as 1.4%.
With `CCOCC(O)COc1ccc(NC(=O)CC[S+](C)C)cc1.Cc1ccc(S(=O)(=O)[O-])cc1` (racemic) [Third-form crystals (ref.), (±)-[2-[4-(3-ethoxy-2-hydroxypropoxy)phenylcarbamoyl]ethyl]dimethylsulfonium p-toluenesulfonate], the “Amount (%) … Decomposition product 2” value by setting is: (1 month) 0.0%; (2 months, p-toluenesulfonate) 0.0%; (3 months, p-toluenesulfonate) 0.0%. For the same molecule, the “Amount (%) … Decomposition product 3” value was 0.0% (1 month); 0.0% (2 months, p-toluenesulfonate); 0.0% (3 months, p-toluenesulfonate). In addition, the “Amount (%) … Decomposition product 1” value (1 month, p-toluenesulfonate) came to 0.0%; the “Amount (%) … Decomposition product 1” value (2 months, p-toluenesulfonate) is recorded as 0.0%; the “Amount (%) … Decomposition product 1” value (3 months, p-toluenesulfonate) worked out at 0.0%. In addition, the “Amount (%) … of decomposition products” value reads like this: (1 month, p-toluenesulfonate) 0.0%; (2 months, p-toluenesulfonate) 0.0%; (3 months, p-toluenesulfonate) 0.0%.
Regarding `CCOCC(O)COc1ccc(NC(=O)CC[S+](C)C)cc1.Cc1ccc(S(=O)(=O)[O-])cc1` (racemic) [Invention crystals (Ex. 4), (±)-[2-[4-(3-ethoxy-2-hydroxypropoxy)phenylcarbamoyl]ethyl]dimethylsulfonium p-toluenesulfonate], the “Amount (%) … Decomposition product 2” value by setting is: (1 month) 0.0%; (2 months, p-toluenesulfonate) 0.0%; (3 months, p-toluenesulfonate) 0.0%. In addition, the “Amount (%) … Decomposition product 3” value is 0.0% (1 month); 0.0% (2 months, p-toluenesulfonate); 0.0% (3 months, p-toluenesulfonate). The “Amount (%) … Decomposition product 1” value runs as follows: (1 month, p-toluenesulfonate) 0.0%; (2 months, p-toluenesulfonate) 0.0%; (3 months, p-toluenesulfonate) 0.0%. Besides, the “Amount (%) … of decomposition products” value runs as follows: (1 month, p-toluenesulfonate) 0.0%; (2 months, p-toluenesulfonate) 0.0%; (3 months, p-toluenesulfonate) 0.0%.
On to `CCOCC(O)COc1ccc(NC(=O)CC[S+](C)C)cc1.Cc1ccc(S(=O)(=O)[O-])cc1` (racemic) [Second-form crystals (ref.), (±)-[2-[4-(3-ethoxy-2-hydroxypropoxy)phenylcarbamoyl]ethyl]dimethylsulfonium p-toluenesulfonate], for which the “Amount (%) … Decomposition product 2” value by setting is: (1 month) 0.0%; (2 months, p-toluenesulfonate) 0.0%; (3 months, p-toluenesulfonate) 0.1%. Also, the “Amount (%) … Decomposition product 3” value was 0.0% (1 month); 0.0% (2 months, p-toluenesulfonate); 0.0% (3 months, p-toluenesulfonate). The “Amount (%) … Decomposition product 1” value is given as 0.0% (1 month, p-toluenesulfonate); 0.0% (2 months, p-toluenesulfonate); 0.1% (3 months, p-toluenesulfonate). Further, the “Amount (%) … of decomposition products” value runs as follows: (1 month, p-toluenesulfonate) 0.0%; (2 months, p-toluenesulfonate) 0.0%; (3 months, p-toluenesulfonate) 0.2%.
Consider `CCOCC(O)COc1ccc(NC(=O)CC[S+](C)C)cc1.Cc1ccc(S(=O)(=O)[O-])cc1` (racemic) [First-form crystals Lot C, (±)-[2-[4-(3-ethoxy-2-hydroxypropoxy)phenylcarbamoyl]ethyl]dimethylsulfonium p-toluenesulfonate], for which the “Amount (%) … Decomposition product 2” value worked out at 0.0% (1 month); 0.3% (2 months, p-toluenesulfonate); 0.4% (3 months, p-toluenesulfonate). Further, the “Amount (%) … Decomposition product 3” value is listed as 0.0% (1 month); 0.2% (2 months, p-toluenesulfonate); 0.4% (3 months, p-toluenesulfonate). In addition, the “Amount (%) … Decomposition product 1” value is recorded as 0.1% (1 month, p-toluenesulfonate); 0.6% (2 months, p-toluenesulfonate); 1.3% (3 months, p-toluenesulfonate). Moreover, the “Amount (%) … of decomposition products” value by setting is: (1 month, p-toluenesulfonate) 0.1%; (2 months, p-toluenesulfonate) 1.1%; (3 months, p-toluenesulfonate) 2.1%.
As to `CCOCC(O)COc1ccc(NC(=O)CC[S+](C)C)cc1.Cc1ccc(S(=O)(=O)[O-])cc1` (racemic) [Invention crystals (Ex. 3), (±)-[2-[4-(3-ethoxy-2-hydroxypropoxy)phenylcarbamoyl]ethyl]dimethylsulfonium p-toluenesulfonate], the “Amount (%) … Decomposition product 2” value (1 month) was 0.0%; the “Amount (%) … Decomposition product 2” value (2 months, p-toluenesulfonate) is given as 0.0%; the “Amount (%) … Decomposition product 2” value (3 months, p-toluenesulfonate) turned out to be 0.0%. Further, the “Amount (%) … Decomposition product 3” value is 0.0% (1 month); 0.0% (2 months, p-toluenesulfonate); 0.0% (3 months, p-toluenesulfonate). For the same molecule, the “Amount (%) … Decomposition product 1” value reads like this: (1 month, p-toluenesulfonate) 0.0%; (2 months, p-toluenesulfonate) 0.0%; (3 months, p-toluenesulfonate) 0.0%. Moreover, the “Amount (%) … of decomposition products” value reads like this: (1 month, p-toluenesulfonate) 0.0%; (2 months, p-toluenesulfonate) 0.0%; (3 months, p-toluenesulfonate) 0.0%.
In the case of `CCOCC(O)COc1ccc(NC(=O)CC[S+](C)C)cc1.Cc1ccc(S(=O)(=O)[O-])cc1` (racemic) [First-form crystals Lot D, (±)-[2-[4-(3-ethoxy-2-hydroxypropoxy)phenylcarbamoyl]ethyl]dimethylsulfonium p-toluenesulfonate], the “Amount (%) … Decomposition product 2” value by setting is: (1 month) 0.0%; (2 months, p-toluenesulfonate) 0.2%; (3 months, p-toluenesulfonate) 0.3%. Also, the “Amount (%) … Decomposition product 3” value runs as follows: (1 month) 0.0%; (2 months, p-toluenesulfonate) 0.1%; (3 months, p-toluenesulfonate) 0.3%. Besides, the “Amount (%) … Decomposition product 1” value (1 month, p-toluenesulfonate) was found to be 0.0%; the “Amount (%) … Decomposition product 1” value (2 months, p-toluenesulfonate) is given as 0.4%; the “Amount (%) … Decomposition product 1” value (3 months, p-toluenesulfonate) is on record as 0.9%. For the same molecule, the “Amount (%) … of decomposition products” value (1 month, p-toluenesulfonate) was found to be 0.0%; the “Amount (%) … of decomposition products” value (2 months, p-toluenesulfonate) was found to be 0.7%; the “Amount (%) … of decomposition products” value (3 months, p-toluenesulfonate) was determined as 1.5%.
